Structures can show the parent of a compound that is named as a salt.
Assay: collision cross section in nitrogen (drift tube, single-field); higher = larger gas-phase ion size
[1] = ion type: [M+H], ion source: ESI, ion mode: Positive
[2] = ion type: [M-H], ion source: ESI, ion mode: Negative
[3] = ion type: [M+Na], ion source: ESI, ion mode: Positive
[4] = ion type: [M+H], ion source: APCI, ion mode: Positive
[5] = ion type: [M+], ion source: APCI, ion mode: Positive
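Further: chemical standards at 10 µM analysed by drift tube IMS-QTOF MS in about 3.95 torr nitrogen, mean of duplicate injections differing ≤1%, mass error below 10 ppm.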

| collision cross section in nitrogen [1] [Å²] | collision cross section in nitrogen [2] [Å²] | collision cross section in nitrogen [3] [Å²] | collision cross section in nitrogen [4] [Å²] | SMILES | also measured |
| --- | --- | --- | --- | --- | --- |
| 143.3 | 140.7 | – | 142.7 | Nc1cc(-c2ccncc2)c[nH]c1=O [Amrinone] | – |
| 183.5 | 178.4 | 188.9 | – | CC(C)(C#N)c1cc(Cn2cncn2)cc(C(C)(C)C#N)c1 [Anastrozole] | – |
| 263.3 | 252.1 | 259.8 | 263.2 | CC(C)(C)c1cc(CCC(=O)NCCCCCCNC(=O)CCc2cc(C(C)(C)C)c(O)c(C(C)(C)C)c2)cc(C(C)(C)C)c1O [Antioxidant 1098] | collision cross section in nitrogen [5]: 271.7 Å² |
| 260.4 | 235.7 | 238.6 | – | CCCCN1C(=O)[C@@H]([C@H](O)C2CCCCC2)NC(=O)C12CCN(Cc1ccc(Oc3ccc(C(=O)O)cc3)cc1)CC2 [Aplaviroc hydrochloride] | – |
| 162.5 | – | – | 162.3 | CN1CCc2cccc3c2[C@H]1Cc1ccc(O)c(O)c1-3 [Apomorphine hydrochloride] | – |
| 217 | 207.8 | 221.7 | – | C[C@@H]1CCN(C(=O)[C@H](CCCNC(=N)N)NS(=O)(=O)c2cccc3c2NC[C@H](C)C3)[C@@H](C(=O)O)C1 [Argatroban monohydrate] | – |
| 216.7 | 207.5 | 221.2 | – | CC1CNc2c(cccc2S(=O)(=O)N[C@@H](CCCNC(=N)N)C(=O)N2CC[C@@H](C)C[C@@H]2C(=O)O)C1 (stereo partly drawn) [Argatroban] | – |
| – | 202.4 | – | – | CCCCCCCCCCCCCCCC(=O)OC[C@H](O)[C@H]1OC(=O)C(O)=C1O [Ascorbyl palmitate] | – |
| 157.8 | – | 164.2 | 157.9 | CC(C)NCC(O)COc1ccc(CC(N)=O)cc1 (stereo not drawn) [Atenolol] | – |
| 230.3 | 228.6 | 232.2 | 229.8 | CC(C)c1c(C(=O)Nc2ccccc2)c(-c2ccccc2)c(-c2ccc(F)cc2)n1CC[C@@H](O)C[C@@H](O)CC(=O)O [Atorvastatin calcium] | collision cross section in nitrogen [5]: 224.3 Å² |
| 229.7 | 228.4 | 231.4 | 229.1 | CC(C)c1c(C(=O)Nc2ccccc2)c(-c2ccccc2)c(-c2ccc(F)cc2)n1CC[C@@H](O)C[C@@H](O)CC(=O)O [Atorvastatin] | – |
| 169.8 | – | – | 168.3 | CN(C)c1ccc(C(=N)c2ccc(N(C)C)cc2)cc1 [Auramine hydrochloride] | – |
| 148.8 | – | – | 148.2 | O=C1CCCCCCCCCCCN1 [Azacyclotridecan-2-one] | – |
| – | 155.5 | 172.4 | 158.6 | Cn1cnc([N+](=O)[O-])c1Sc1ncnc2nc[nH]c12 [Azathioprine] | – |
| – | 211.8 | – | – | O=S(=O)(O)c1ccc(N=Nc2cc(S(=O)(=O)O)c3ccccc3c2O)c2ccccc12 [Azorubine] | – |
| 186.1 | 183.9 | 201.9 | – | O=S(=O)(c1ccc(OCc2ccccc2)cc1)c1ccccc1O [BPS-MPE4] | – |
| – | 137.4 | – | – | CCCCC(CC)C(=O)O (stereo not drawn) [Barium bis(2-ethylhexanoate)] | – |
| – | – | 165.4 | – | CCOC(=O)Cn1c(=O)sc2cccc(Cl)c21 [Benazolin-ethyl] | – |

The next lines start with the compound.

| SMILES | collision cross section in nitrogen [1] [Å²] | collision cross section in nitrogen [2] [Å²] | collision cross section in nitrogen [3] [Å²] | collision cross section in nitrogen [4] [Å²] | also measured |
| --- | --- | --- | --- | --- | --- |
| CC(=O)O[C@H](CC(=O)[O-])C[N+](C)(C)C [Acetyl-L-carnitine hydrochloride] | 143.9 | – | – | – | – |
| Nc1c(S(=O)(=O)O)cc(Nc2ccccc2)c2c1C(=O)c1ccccc1C2=O [Acid Blue 25] | 190.2 | 191.1 | – | – | – |
| Nc1ccc2cc(S(=O)(=O)O)cc(O)c2c1N=Nc1ccccc1C(F)(F)F [Acid Red 337] | 191.7 | 195.6 | – | – | – |
| C=CC(=O)OCCOC(=O)CCC(=O)O [Acryloyloxyethyl succinate] | – | – | 145.9 | – | – |
| CC(=O)Nc1ccc(CC(=O)O)cc1 [Actarit] | 143.7 | – | 143.5 | – | – |
| Nc1ncnc2[nH]cnc12 [Adenine] | 125.2 | 120.9 | – | 124.4 | – |
| CCCSc1ccc2[nH]c(NC(=O)OC)nc2c1 [Albendazole] | 166 | – | – | 166.9 | collision cross section in nitrogen [5]: 160.4 Å² |
| CNC(=O)ON=CC(C)(C)S(C)=O (stereo not drawn) [Aldicarb sulfoxide] | – | – | 147.4 | – | – |
| CNC(=O)ON=CC(C)(C)SC [Aldicarb] | – | – | 147.5 | – | – |
| C=CCO/N=C(\CCC)C1C(=O)CC(C)(C)C(C(=O)OC)C1=O (stereo not drawn) [Alloxydim sodium] | 175.7 | 177.7 | 179.4 | 175.7 | – |
| O=C1c2cccc(O)c2C(=O)c2c(O)cc(CO)cc21 [Aloe-emodin] | – | 157.1 | – | – | – |
| CCNc1nc(NC(C)C)nc(SC)n1 [Ametryn] | 155.5 | – | – | 155.2 | – |
| CNC(=O)Oc1ccc(N(C)C)c(C)c1 [Aminocarb] | 152.2 | – | 155.8 | 151.6 | – |
| CCC1(c2ccc(N)cc2)CCC(=O)NC1=O (stereo not drawn) [Aminoglutethimide] | – | 158.8 | – | – | – |
| Nc1nc(N)c2nc(CNc3ccc(C(=O)N[C@@H](CCC(=O)O)C(=O)O)cc3)cnc2n1 [Aminopterin] | – | 199.5 | – | – | – |
| CCCCc1oc2ccccc2c1C(=O)c1cc(I)c(OCCN(CC)CC)c(I)c1 [Amiodarone hydrochloride] | 224.2 | – | 231.6 | 223.8 | collision cross section in nitrogen [5]: 224 Å² |
| COP(=S)(NC(C)C)Oc1ccc(C)cc1[N+](=O)[O-] (stereo not drawn) [Amiprofos-methyl] | – | 164.8 | 172.4 | – | – |
| CN(C)CCC=C1c2ccccc2CCc2ccccc21 [Amitriptyline hydrochloride] | 167.5 | – | 175.7 | 166.8 | – |
| Nc1nc[nH]n1 [Amitrole] | – | 113.2 | – | – | – |
| CCOP(=S)(S)OCC [Ammonium diethyl dithiophosphate] | – | 134.4 | – | – | – |

| SMILES | collision cross section in nitrogen [1] [Å²] | collision cross section in nitrogen [2] [Å²] | collision cross section in nitrogen [3] [Å²] | collision cross section in nitrogen [4] [Å²] | also measured |
| --- | --- | --- | --- | --- | --- |
| CC1(C)[C@@H](O[C@H]2O[C@H](C(=O)O)[C@@H](O)[C@H](O)[C@H]2O[C@@H]2O[C@H](C(=O)O)[C@@H](O)[C@H](O)[C@H]2O)CC[C@]2(C)[C@H]3C(=O)C=C4[C@@H]5C[C@@](C)(C(=O)O)CC[C@]5(C)CC[C@@]4(C)[C@]3(C)CC[C@@H]12 [Ammonium glycyrrhizinate trihydrate] | 286.8 | 282.6 | 294.4 | – | – |
| O=[N+]([O-])O [Ammonium nitrate] | – | 104.5 | – | – | – |
| Clc1ccc2c(c1)C(N1CCNCC1)=Nc1ccccc1O2 [Amoxapine] | 172.6 | – | – | 172.4 | – |
| c1cncc([C@@H]2CCCCN2)c1 [Anabasine] | 135.9 | – | – | 136.4 | – |
| COc1ccc(C(O)(c2cncnc2)C2CC2)cc1 (stereo not drawn) [Ancymidol] | 164.2 | – | – | 164.3 | – |
| C[As+](C)(C)CC(=O)[O-] [Arsenobetaine] | 118 | – | – | – | – |
| COc1ccc(CCN2CCC(Nc3nc4ccccc4n3Cc3ccc(F)cc3)CC2)cc1 [Astemizole] | 210.8 | 227.8 | 213.2 | – | – |
| COC(=O)NS(=O)(=O)c1ccc(N)cc1 [Asulam] | – | 150.4 | – | – | – |
| CCNc1nc(NC(C)C)nc(OC)n1 [Atraton] | 150.5 | – | 168.1 | – | – |
| CCNc1nc(Cl)nc(NC(C)C)n1 [Atrazine] | 149.5 | – | – | 149 | – |
| COP(=O)(OC)SCn1c(=O)oc2cc(Cl)cnc21 [Azamethiphos] | 161.5 | – | 171.2 | 160.6 | – |
| CCOP(=S)(OCC)SCn1nnc2ccccc2c1=O [Azinphos-ethyl] | – | – | 177.9 | – | – |
| CSc1nc(N=[N+]=[N-])nc(NC(C)C)n1 [Aziprotryne] | 148.9 | – | – | 149.1 | – |
| c1ccc(N=Nc2ccccc2)cc1 [Azobenzene] | – | – | – | 139.5 | – |
| CO/C=C(/C(=O)OC)c1ccccc1Oc1cc(Oc2ccccc2C#N)ncn1 [Azoxystrobin] | 195 | – | 199 | 196.5 | – |
| CCNc1ccc(C(=C2C=CC(=[N+](CC)CC)C=C2)c2ccc(N(CC)CC)cc2)c2ccccc12 [Basic Blue 7] | – | – | – | – | collision cross section in nitrogen (ion source: APCI, ion mode: Positive, ion type: [M]+ (permanent cation)): 241.9 Å²; collision cross section in nitrogen (ion source: ESI, ion mode: Positive, ion type: [M]+ (permanent cation)): 240.6 Å² |
| CNC(=O)Oc1cccc2c1OC(C)(C)O2 [Bendiocarb] | – | – | 157 | – | – |
| CCCCN(CC)c1c([N+](=O)[O-])cc(C(F)(F)F)cc1[N+](=O)[O-] [Benfluralin] | – | 168.5 | – | – | – |
| CCOC(=O)CCN(SN(C)C(=O)Oc1cccc2c1OC(C)(C)C2)C(C)C [Benfuracarb] | 197.3 | – | 201.5 | 197.3 | – |
